Measured values reported in ChEMBL document CHEMBL4041544, “Discovery of new selective glucocorticoid receptor agonist leads” (Bioorg Med Chem Lett, 2017).

target: T1, Glucocorticoid receptor (Homo sapiens, UniProt P04150); experiment: Transrepression activity at glucocorticoid receptorin human HeLa cells assessed as inhibition of TPA-induced collagenase promoter activity by luciferase reporter gene assay; type: cell-based
T1 sequence (P04150 whole entry): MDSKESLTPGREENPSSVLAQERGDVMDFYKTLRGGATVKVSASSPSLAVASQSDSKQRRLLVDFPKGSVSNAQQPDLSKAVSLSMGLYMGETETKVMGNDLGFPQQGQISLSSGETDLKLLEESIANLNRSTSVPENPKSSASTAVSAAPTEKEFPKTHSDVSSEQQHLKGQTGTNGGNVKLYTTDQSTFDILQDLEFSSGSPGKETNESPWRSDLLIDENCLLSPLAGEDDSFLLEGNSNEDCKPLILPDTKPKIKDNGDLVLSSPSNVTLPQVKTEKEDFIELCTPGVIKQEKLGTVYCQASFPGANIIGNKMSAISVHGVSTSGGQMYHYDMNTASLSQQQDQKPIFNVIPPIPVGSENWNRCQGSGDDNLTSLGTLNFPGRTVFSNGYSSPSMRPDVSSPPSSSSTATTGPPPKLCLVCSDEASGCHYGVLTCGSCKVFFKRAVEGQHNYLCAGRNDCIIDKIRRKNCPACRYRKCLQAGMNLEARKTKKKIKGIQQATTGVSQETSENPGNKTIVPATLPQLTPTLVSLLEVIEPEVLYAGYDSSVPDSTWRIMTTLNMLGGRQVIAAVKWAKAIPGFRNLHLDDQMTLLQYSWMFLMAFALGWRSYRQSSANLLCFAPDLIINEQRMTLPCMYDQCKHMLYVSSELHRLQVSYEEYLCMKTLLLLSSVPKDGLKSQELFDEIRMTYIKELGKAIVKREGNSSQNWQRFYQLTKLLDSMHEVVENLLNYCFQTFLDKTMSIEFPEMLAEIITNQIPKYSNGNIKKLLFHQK

IC50 [nM] | SMILES
15.8 | CC1(C)C[C@](O)(C(F)(F)F)[C@@H](Nc2cccc3[nH]c(=O)ccc23)c2ccc(F)c(O)c21
20 | Cc1ccc2c(N[C@H]3c4ccc(F)c(O)c4[C@H](C)C[C@]3(O)C(F)(F)F)cccc2n1

target: T1, Glucocorticoid receptor; experiment: Transactivation activity at glucocorticoid receptor in human HeLa cells assessed as induction of MMTV promoter activity by luciferase reporter gene assay; type: cell-based

pEC50 | SMILES
7.6 | CC1(C)C[C@](O)(C(F)(F)F)[C@@H](Nc2cccc3[nH]c(=O)ccc23)c2ccc(F)c(O)c21
7.4 | Cc1ccc2c(N[C@H]3c4ccc(F)c(O)c4[C@H](C)C[C@]3(O)C(F)(F)F)cccc2n1

target: T1, Glucocorticoid receptor; experiment: Transrepression activity at glucocorticoid receptor in human THP1 cells assessed as receptor-mediated anti-inflammatory activity by measuring inhibition of LPS-induced IL-8 production; type: cell-based

IC50 [nM] | SMILES
15.8 | CC1(C)C[C@](O)(C(F)(F)F)[C@@H](Nc2cccc3[nH]c(=O)ccc23)c2ccc(F)c(O)c21
20 | Cc1ccc2c(N[C@H]3c4ccc(F)c(O)c4[C@H](C)C[C@]3(O)C(F)(F)F)cccc2n1

target: T1, Glucocorticoid receptor; experiment: Binding affinity to recombinant human glucocorticoid receptor expressed in baculovirus infected sf9 cells

IC50 [nM] | SMILES
15.8 | CC1(C)C[C@](O)(C(F)(F)F)[C@@H](Nc2cccc3[nH]c(=O)ccc23)c2ccc(F)c(O)c21
15.8 | Cc1ccc2c(N[C@H]3c4ccc(F)c(O)c4[C@H](C)C[C@]3(O)C(F)(F)F)cccc2n1

target: T2, Progesterone receptor (Homo sapiens, UniProt P06401); experiment: Binding affinity to recombinant human progesterone receptor expressed in baculovirus infected sf9 cells
T2 sequence (P06401 whole entry): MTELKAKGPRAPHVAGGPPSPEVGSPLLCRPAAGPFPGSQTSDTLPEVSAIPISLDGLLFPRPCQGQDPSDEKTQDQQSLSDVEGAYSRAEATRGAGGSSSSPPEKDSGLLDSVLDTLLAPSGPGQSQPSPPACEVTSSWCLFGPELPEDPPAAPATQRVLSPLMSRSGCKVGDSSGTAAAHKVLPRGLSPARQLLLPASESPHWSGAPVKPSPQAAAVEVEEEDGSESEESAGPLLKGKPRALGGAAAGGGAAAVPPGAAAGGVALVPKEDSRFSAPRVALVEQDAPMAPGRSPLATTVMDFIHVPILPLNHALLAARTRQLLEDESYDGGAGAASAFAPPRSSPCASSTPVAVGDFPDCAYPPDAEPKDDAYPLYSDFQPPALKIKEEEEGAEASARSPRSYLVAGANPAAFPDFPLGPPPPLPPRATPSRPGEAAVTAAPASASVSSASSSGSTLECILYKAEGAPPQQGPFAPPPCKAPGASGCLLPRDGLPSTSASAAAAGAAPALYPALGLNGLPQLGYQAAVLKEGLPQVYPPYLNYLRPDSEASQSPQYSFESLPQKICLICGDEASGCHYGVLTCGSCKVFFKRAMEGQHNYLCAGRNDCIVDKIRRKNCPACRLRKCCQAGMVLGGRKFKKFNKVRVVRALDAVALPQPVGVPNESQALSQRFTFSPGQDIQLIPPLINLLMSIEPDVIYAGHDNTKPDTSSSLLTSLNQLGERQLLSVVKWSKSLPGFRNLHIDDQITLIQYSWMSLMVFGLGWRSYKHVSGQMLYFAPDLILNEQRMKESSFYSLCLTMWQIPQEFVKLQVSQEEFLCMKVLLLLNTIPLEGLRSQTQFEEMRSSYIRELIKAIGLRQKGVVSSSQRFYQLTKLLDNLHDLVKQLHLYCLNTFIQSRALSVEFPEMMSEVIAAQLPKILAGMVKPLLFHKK

IC50 [nM] | SMILES
794 | CC1(C)C[C@](O)(C(F)(F)F)[C@@H](Nc2cccc3[nH]c(=O)ccc23)c2ccc(F)c(O)c21
> 1000 | Cc1ccc2c(N[C@H]3c4ccc(F)c(O)c4[C@H](C)C[C@]3(O)C(F)(F)F)cccc2n1

target: T3, Mineralocorticoid receptor (Homo sapiens, UniProt P08235); experiment: Binding affinity to recombinant human mineralocorticoid receptor expressed in baculovirus infected sf9 cells
T3 sequence (P08235 whole entry): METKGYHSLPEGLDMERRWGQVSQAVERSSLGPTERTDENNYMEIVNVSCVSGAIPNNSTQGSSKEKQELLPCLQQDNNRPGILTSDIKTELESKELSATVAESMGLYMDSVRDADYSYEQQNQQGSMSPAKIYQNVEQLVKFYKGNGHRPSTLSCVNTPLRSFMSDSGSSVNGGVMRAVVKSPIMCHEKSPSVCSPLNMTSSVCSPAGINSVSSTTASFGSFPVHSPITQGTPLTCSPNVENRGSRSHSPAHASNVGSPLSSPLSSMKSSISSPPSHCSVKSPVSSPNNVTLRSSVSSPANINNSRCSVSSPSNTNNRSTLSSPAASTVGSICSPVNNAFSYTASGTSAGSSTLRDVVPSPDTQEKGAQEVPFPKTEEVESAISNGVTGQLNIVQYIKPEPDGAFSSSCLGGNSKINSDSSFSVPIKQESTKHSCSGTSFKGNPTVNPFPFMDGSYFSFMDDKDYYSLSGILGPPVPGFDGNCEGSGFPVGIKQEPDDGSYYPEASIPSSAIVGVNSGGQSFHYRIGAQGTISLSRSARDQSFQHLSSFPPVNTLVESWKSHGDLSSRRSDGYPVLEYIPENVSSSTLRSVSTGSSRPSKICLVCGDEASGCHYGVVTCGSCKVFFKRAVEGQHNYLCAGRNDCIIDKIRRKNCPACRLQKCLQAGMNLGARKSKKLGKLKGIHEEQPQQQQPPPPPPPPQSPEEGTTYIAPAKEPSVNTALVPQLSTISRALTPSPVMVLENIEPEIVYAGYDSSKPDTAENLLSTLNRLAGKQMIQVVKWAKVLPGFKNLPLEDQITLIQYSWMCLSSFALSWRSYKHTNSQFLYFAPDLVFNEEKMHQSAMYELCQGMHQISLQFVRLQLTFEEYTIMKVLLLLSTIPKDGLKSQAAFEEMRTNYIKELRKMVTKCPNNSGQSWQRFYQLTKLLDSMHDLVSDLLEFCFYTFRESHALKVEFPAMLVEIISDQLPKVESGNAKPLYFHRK

IC50 [nM] | SMILES
> 1000 | CC1(C)C[C@](O)(C(F)(F)F)[C@@H](Nc2cccc3[nH]c(=O)ccc23)c2ccc(F)c(O)c21
> 1000 | Cc1ccc2c(N[C@H]3c4ccc(F)c(O)c4[C@H](C)C[C@]3(O)C(F)(F)F)cccc2n1

target: T4, Androgen receptor (Homo sapiens, UniProt P10275); experiment: Binding affinity to recombinant human androgen receptor expressed in baculovirus infected sf9 cells
T4 sequence (P10275 whole entry): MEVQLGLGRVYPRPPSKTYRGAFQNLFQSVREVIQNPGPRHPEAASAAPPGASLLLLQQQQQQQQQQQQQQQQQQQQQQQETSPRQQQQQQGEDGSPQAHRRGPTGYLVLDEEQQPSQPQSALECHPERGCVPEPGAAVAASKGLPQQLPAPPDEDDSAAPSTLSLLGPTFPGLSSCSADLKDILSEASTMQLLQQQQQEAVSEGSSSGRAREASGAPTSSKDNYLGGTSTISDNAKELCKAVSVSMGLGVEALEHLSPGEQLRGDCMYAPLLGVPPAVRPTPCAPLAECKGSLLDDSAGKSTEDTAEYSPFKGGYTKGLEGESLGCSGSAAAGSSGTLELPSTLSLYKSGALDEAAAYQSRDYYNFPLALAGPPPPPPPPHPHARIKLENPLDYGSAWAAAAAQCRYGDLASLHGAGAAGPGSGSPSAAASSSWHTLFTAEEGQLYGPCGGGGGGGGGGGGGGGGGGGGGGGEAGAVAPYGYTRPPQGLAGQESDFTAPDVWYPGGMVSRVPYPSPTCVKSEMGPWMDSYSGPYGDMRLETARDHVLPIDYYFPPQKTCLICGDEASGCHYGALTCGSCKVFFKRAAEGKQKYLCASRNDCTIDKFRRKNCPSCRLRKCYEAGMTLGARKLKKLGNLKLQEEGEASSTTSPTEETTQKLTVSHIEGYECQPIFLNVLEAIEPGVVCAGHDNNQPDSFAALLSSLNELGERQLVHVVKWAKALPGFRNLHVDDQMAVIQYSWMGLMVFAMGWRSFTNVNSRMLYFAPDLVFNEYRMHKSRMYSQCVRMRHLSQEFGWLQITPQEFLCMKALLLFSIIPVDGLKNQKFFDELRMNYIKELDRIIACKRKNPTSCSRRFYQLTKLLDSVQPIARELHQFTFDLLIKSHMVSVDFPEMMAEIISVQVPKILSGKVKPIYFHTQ

IC50 [nM] | SMILES
794 | CC1(C)C[C@](O)(C(F)(F)F)[C@@H](Nc2cccc3[nH]c(=O)ccc23)c2ccc(F)c(O)c21
> 1000 | Cc1ccc2c(N[C@H]3c4ccc(F)c(O)c4[C@H](C)C[C@]3(O)C(F)(F)F)cccc2n1
